Assay results as given in patent publication US12421212B2, “Substituted benzenecarboxamides as IL-17A modulators” (DiCE Alpha, Inc., priority 2019, dated 2025).

Biological target: T1, IL-17A/A (Homo sapiens, UniProt Q16552)
T1 construct: purchased Genscript Z03228
T1 sequence (Q16552 24-155): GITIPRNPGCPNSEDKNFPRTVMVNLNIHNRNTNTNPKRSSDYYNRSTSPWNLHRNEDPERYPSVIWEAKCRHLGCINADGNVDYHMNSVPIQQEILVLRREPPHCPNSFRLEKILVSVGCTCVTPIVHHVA
Experiment: IL-17A/A HEK-Blue Cell Assay
Format: cell-based
Conditions: HEK-Blue IL-17A reporter cell line, SEAP readout at A630, 20 hours incubation with IL-17A/A, top concentration 10 uM, 1 uM or 0.3 uM; for IC50: read-out: IL-17A/A inhibition (pIC50) (converted)

IC50 [nM] | SMILES | IL-17A/A inhibition (pIC50)
 | CCC(=O)N[C@@H](C(=O)N1CCN(C)CC1)[C@@H](C)c1ccc(NC(=O)C(NC(=O)c2ccnn2CC)C(C)c2ccccc2Cl)c(F)c1 (stereo partly shown) [Compound 519] | X3a (compounds were evaluated up to 0.3 uM and did not inhibit activity by >80%, however they showed some activity at 0.3 uM (less than 80% and more than 20%))
< 10 | CCC(=O)N[C@@H](C(=O)N1CCN(C)CC1)[C@@H](C)c1ccc(NC(=O)[C@@H](NC(=O)c2nonc2C(C)C)[C@H]2CC[C@H](C)CC2)c(F)c1 [Compound 549] | 
100 to 10000 | CCC(=O)N[C@H](Cc1ccc(NC(=O)[C@@H](NC(=O)c2ccnn2CC)C2CCCCC2)c(F)c1)C(=O)N1CCN(Cc2ccccn2)CC1 [Compound 640] | 
100 to 10000 | CCC(=O)N[C@H](Cc1ccc(NC(=O)[C@@H](NC(=O)c2ccnn2CC)C2CCCCC2)c(F)c1)C(=O)N1CCCN(C)CC1 [Compound 760] | 
< 10 | CCn1nccc1C(=O)N[C@H](C(=O)Nc1ccc([C@H](C)C(NC(=O)C(F)C2CC2)C(=O)N2CCN(C)[C@H](C)C2)cc1F)[C@H]1CC[C@H](C)CC1 (single isomer, unassigned) [Compound 602] | 
 | CCC(=O)N[C@H](Cc1ccc(NC(=O)[C@@H](NC(=O)C(F)(F)c2ccncc2)C2CCCCC2)c(F)c1)C(=O)N1CCN(C)CC1 [Compound 712] | X2a (compounds were evaluated up to 1 uM and did not inhibit activity by >80%, however they showed some activity at 1 uM (less than 80% and more than 20%))
< 10 | CC(C)n1nccc1C(=O)N[C@H](C(=O)Nc1ccc([C@H](C)[C@@H](NC(=O)c2ccnn2C2CCC2)C(=O)N2CCN(C)CC2)cc1F)[C@H]1CC[C@H](C)CC1 [Compound 398] | 
10 to 100 | CCC(=O)N[C@H](C(=O)N1CCN(C)CC1)[C@H](C)c1ccc(NC(=O)[C@@H](NC(=O)c2ccnn2CC)[C@@H](C)OC2CCCCC2)c(F)c1 [Compound 389] | 
< 10 | CCC(=O)N[C@@H](C(=O)NCC1CCC1)[C@@H](C)c1ccc(NC(=O)[C@@H](NC(=O)c2ccnn2CC)C2CCCCCC2)c(F)c1 [Compound 538] | 
100 to 10000 | CCC(=O)N[C@H](Cc1ccc(NC(=O)[C@@H](NC(=O)c2ccnn2CC(F)(F)F)C2CCCCC2)c(F)c1)C(=O)N1CCN(C)CC1 [Compound 648] | 
 | CCC(=O)N[C@H](Cc1ccc(NC(=O)[C@@H](NC(=O)C(C)(C)c2ccccc2)C2CCCCC2)c(F)c1)C(=O)N1CCN(C)CC1 [Compound 709] | X2b (compounds were evaluated up to 1 uM and inhibited activity at 1 uM by less than 20%)
< 10 | CC(C)c1nonc1C(=O)N[C@H](C(=O)Nc1ccc([C@H](C)[C@@H](NC(=O)c2cnns2)C(=O)N2CCN(C)CC2)cc1F)[C@H]1CC[C@H](C)CC1 [Compound 550] | 
10 to 100 | CCC(=O)N[C@H](Cc1ccc(NC(=O)[C@@H](NC(=O)c2ccnn2CC)C2CCCCC2)c(F)c1)C(=O)N1CCN(Cc2ccccc2)CC1 [Compound 325] | 
 | CCC(=O)N[C@@H](C(=O)N1CCN(C)CC1)[C@@H](C)c1ccc(NC(=O)C(NC(=O)c2nonc2CC)C(CC)c2ccc(Cl)cc2)c(F)c1 (stereo partly shown) [Compound 567] | X2b (compounds were evaluated up to 1 uM and inhibited activity at 1 uM by less than 20%)
< 10 | CCC(=O)N[C@@H](C(=O)N1CCN(C)CC1)[C@@H](C)c1ccc(NC(=O)[C@@H](NC(=O)c2nonc2CC)[C@H](C)[C@H]2CC[C@H](C)CC2)c(F)c1 [Compound 586] | 
10 to 100 | CCC(=O)N[C@@H](C(=O)NCC1CCC1)[C@@H](C)c1ccc(NC(=O)[C@@H](NC(=O)c2ccnn2CC)[C@H]2CC[C@H](C)CC2)c(F)c1 [Compound 345] | 
10 to 100 | CCC(=O)N[C@@H](C(=O)N1CCC(C)CC1)[C@@H](C)c1ccc(NC(=O)[C@@H](NC(=O)c2ccnn2C2CCCC2)[C@H]2CC[C@H](C)CC2)c(F)c1 [Compound 375] | 
 | CCn1nccc1C(=O)N[C@H](C(=O)Nc1ccc([C@H](C)[C@@H](NC(=O)NC2CC2)C(=O)N2CCN(C)CC2)cc1F)[C@H]1CC[C@H](C)CC1 [Compound 404] | B (8>B≥7 as B)
100 to 10000 | CCn1nccc1C(=O)N[C@H](C(=O)Nc1ccc([C@H](C)[C@@H](NC(=O)c2csc(N)n2)C(=O)N2CCN(C)CC2)cc1F)C1CCCCC1 [Compound 695] | 
10 to 100 | CCC(=O)N[C@@H](C(=O)N[C@@H](C)C1CC1)[C@@H](C)c1ccc(NC(=O)[C@@H](NC(=O)c2ccnn2CC)[C@H]2CC[C@H](C)CC2)c(F)c1 [Compound 344] | 
100 to 10000 | CCC(=O)N[C@@H](C(=O)N1CCN(C)CC1)[C@@H](C)c1ccc(NC(=O)[C@@H](NC(=O)C(F)(F)C2CCN(C(C)=O)CC2)C2CCCCC2)c(F)c1 [Compound 653] | 
10 to 100 | CCC(=O)N[C@@H](C(=O)N1CCOCC1)[C@@H](C)c1ccc(NC(=O)[C@@H](NC(=O)C(F)(F)c2cccc(C#N)c2)C2CCCCC2)c(F)c1 [Compound 352] | 

IC50 [nM] | SMILES | IL-17A/A inhibition (pIC50)
10 to 100 | CCC(=O)N[C@@H](C(=O)N1CCN(C)CC1)[C@@H](C)c1ccc(NC(=O)[C@@H](NC(=O)C(F)(F)c2ccc(OC)nc2)[C@H]2CC[C@H](C(F)(F)F)CC2)c(F)c1 [Compound 285] | 
10 to 100 | CCC(=O)N[C@@H](C(=O)N1CCN(Cc2ccccn2)CC1)[C@@H](C)c1ccc(NC(=O)[C@@H](NC(=O)c2ccnn2CC)[C@H]2CC[C@H](C)CC2)c(F)c1 [Compound 341] | 
 | CCC(=O)N[C@H](Cc1ccc(NC(=O)[C@@H](NC(=O)Cc2ccc(=O)[nH]c2)C2CCCCC2)c(F)c1)C(=O)N1CCN(C)CC1 [Compound 778] | X1b (compounds were evaluated up to 10 uM and inhibited activity at 10 uM by less than 20%)
10 to 100 | CCC(=O)N[C@@H](C(=O)N1CCN(C)CC1)[C@@H](C)c1ccc(NC(=O)C(NC(=O)C(F)(F)c2cnc(OC)nc2)C2CCCCCC2)c(F)c1 (stereo partly shown) [Compound 418] | 
100 to 10000 | CCC(=O)N[C@@H](C(=O)N1CCN(C)CC1)[C@@H](C)c1ccc(NC(=O)[C@@H](NC(=O)c2ccnn2CC)[C@H]2CC[C@H](C(F)(F)F)CC2)c(F)c1 [Compound 649] | 
100 to 10000 | CCC(=O)N[C@@H](C(=O)N1CCN(C)CC1)[C@@H](C)c1ccc(NC(=O)[C@@H](NC(=O)c2ccnn2CC)[C@H](OC)c2ccc(F)cc2)c(F)c1 [Compound 610] | 
100 to 10000 | CCC(=O)N[C@H](Cc1ccc(NC(=O)[C@@H](NC(=O)c2cc(Cl)nn2C)C2CCCCC2)c(F)c1)C(=O)N1CCN(C)CC1 [Compound 765] | 
 | CCC(=O)N[C@@H](C(=O)N1CCN(C)CC1)[C@@H](C)c1ccc(NC(=O)C(NC(=O)c2nonc2CC)C(CC)c2ccc(Cl)cc2)c(F)c1 (single isomer, unassigned) [Compound 564] | X2a (compounds were evaluated up to 1 uM and did not inhibit activity by >80%, however they showed some activity at 1 uM (less than 80% and more than 20%))
10 to 100 | CCC(=O)N[C@@H](C(=O)N1CCN(C)CC1)[C@@H](C)c1ccc(NC(=O)[C@@H](NC(=O)C(F)(F)c2cccc(C#N)c2)C2CCCCC2)cc1 [Compound 300] | 
 | CCC(=O)N[C@@H](C(=O)N1CCN(C)CC1)[C@@H](C)c1ccc(NC(=O)C(NC(=O)c2ccnn2CC)C(CC)c2ccc(Cl)cc2)c(F)c1 (single isomer, unassigned) [Compound 560] | X2b (compounds were evaluated up to 1 uM and inhibited activity at 1 uM by less than 20%)
< 10 | [2H]C([2H])([2H])N1CCN(C(=O)[C@H](NC(=O)CC)[C@@H](C)c2ccc(NC(=O)[C@@H](NC(=O)c3ccnn3CC)[C@H]3CC[C@H](C)CC3)c(F)c2)CC1 [Compound 539] | 
< 10 | CCC(=O)N[C@@H](C(=O)N1CCN(Cc2ccccn2)CC1)[C@@H](C)c1ccc(NC(=O)[C@@H](NC(=O)c2nonc2CC)[C@H]2CC[C@H](C)CC2)c(F)c1 [Compound 450] | 
< 10 | CCC(=O)N[C@@H](C(=O)N1CCC(C)(O)CC1)[C@@H](C)c1ccc(NC(=O)[C@@H](NC(=O)C(F)(F)c2cccc(C#N)c2)C2CCCCCC2)c(F)c1 [Compound 355] | 
 | CCC(=O)N[C@H](Cc1ccc(NC(=O)[C@@H](NC(=O)c2cnc(CNS(C)(=O)=O)n2C)C2CCCCC2)c(F)c1)C(=O)N1CCN(C)CC1 [Compound 716] | X2b (compounds were evaluated up to 1 uM and inhibited activity at 1 uM by less than 20%)
10 to 100 | CCC(=O)N[C@@H](C(=O)N1CCN(C)CC1)[C@@H](C)c1ccc(NC(=O)[C@@H](NC(=O)c2cccn2CC)C2CCCCC2)c(F)c1 [Compound 254] | 
10 to 100 | CCC(=O)N[C@@H](C(=O)N1CCN(C)CC1)[C@@H](C)c1ccc(NC(=O)[C@@H](NC(=O)C(F)(F)c2ccc(OC)nc2)C2CCCCC2)c(F)c1 [Compound 218] | 
100 to 10000 | CCC(=O)N[C@@H](C(=O)N1CCN(C)CC1)[C@@H](C)c1ccc(NC(=O)[C@@H](NC(=O)Cc2ccc(CC(=O)O)cc2)C2CCCCC2)c(F)c1 [Compound 769] | 
< 10 | CCn1nccc1C(=O)N[C@H](C(=O)Nc1ccc([C@H](C)[C@@H](NC(=O)C(C)C2CC2)C(=O)N2CCN(C)C(C)(C)C2)cc1F)[C@H]1CC[C@H](C)CC1 (stereo partly shown) [Compound 432] | 
10 to 100 | CCC(=O)N[C@@H](C(=O)N1CCC(Oc2ccccc2)CC1)[C@@H](C)c1ccc(NC(=O)[C@@H](NC(=O)c2ccnn2CC)[C@H]2CC[C@H](C)CC2)c(F)c1 [Compound 372] | 
10 to 100 | CCC(=O)N[C@@H](C(=O)N1C[C@@H](C)N[C@@H](C)C1)[C@@H](C)c1ccc(NC(=O)[C@@H](NC(=O)c2nonc2CC)[C@H]2CC[C@H](C)CC2)c(F)c1 [Compound 447] | 
 | CCC(=O)N[C@@H](C(=O)N1CCN(C)CC1)[C@@H](C)c1ccc(NC(=O)C(NC(=O)c2nonc2CC)C(C)C2CCC(C)CC2)c(F)c1 (single isomer, unassigned) [Compound 584] | X2b (compounds were evaluated up to 1 uM and inhibited activity at 1 uM by less than 20%)
